Reference: US20140336187A1, “METHODS FOR TREATING LEISHMANIASIS” (HOWARD UNIVERSITY, priority 2011, published 2014)
Where “and” joins values, the source holds several entries; their conditions need not be identical. Equal entries are not always repeated. Where two headings read alike, the source gives them in different places.

What was measured:
L. donovani = test: In vivo visceral leishmaniasis BALB/c mouse model: liver and spleen parasite burden (LDUs); parameters: species or system BALB/c mice; conditions: for LDUs (Liver): subcutaneous, 4 days from day 7; for LDUs (Liver) / LDUs (Spleen): 14 days post infection, n=2; for Parasite Suppression (%)--Liver (reduction in parasite burden) / Parasite Suppression (%)--Spleen (reduction in parasite burden) / increase in parasite burden (spleen): compared to untreated controls
Experimental: Balb/c mice 10-11 weeks old were infected with L. donovani inoculated subcutaneously (SC) at the base of the tail (maximum 0.2 ml) with 1×10^6 freshly harvested promastigotes. These represented a VL model which has been described previously (Yardley and Croft, 1999). After infection, mice were marked for individual identification and randomly allocated into groups of two. Seven days after infection, a mouse was sacrificed, and parasitic burden assessed based on microscopic enumeration of amastigotes (Leishman donovan bodies) against host cell nuclei on liver and spleen impression smears (Stauber et al., 1958). Blood was collected through cardiac puncture for use in all serum based assays.
Dosing began on the seventh day post-infection for 4 continuous days. […] Dosing was administered subcutaneously at the base of the tail.
It includes the different groups of mice and the concentrations of compounds used for the treatment of infections. A Representation of infections and treatments of BALB/c Mice is in Table 2. All mice were infected with 10^6 log phase promastigotes in PBS. In each group with different concentrations, there were two mice (n=2). […] The positive controls that were infected but were not treated with any drug except PBS, and the negative controls that were not infected with the parasites, but injected with only PBS.
The efficacy of compounds was assessed by microscopically determining the reduction in amastigotes burden Leishman donovan bodies (LDBs) within the liver and spleen. Impression smears were taken 14 days post infection (7 days after the start of treatment). Mice liver and spleen imprints were made by touching a freshly cut surface of the mice liver and spleen many times with a Poly-L-Lysine coated slide. The slides were air dried, fixed in “Diff Quick” fixative for 30 seconds, drained, stained with “Quick Diff” solution II for 30 seconds, drained, and then finally counterstaining with “Diff Quick” solution I for 30 seconds and then drained. Slides were rinsed in tap water to remove excess stain and rapidly dehydrated in absolute alcohol. Slides were examined by light microscopy, using ×1000 oil immersion. LDBs were determined by dividing the number of LDBs/number of cells nuclei x weight of organ in milligrams. This gave the number of “Leishman donovan units” (LDUs).
The purpose of the test was to evaluate splenic and liver parasite burden after treatment with selected compounds. This was done by making imprints and calculating the number of Leishman Donovan Units (LDUs) in cells. LDUs are calculated by counting the number of parasites per cell nuclei (number of amastigotes in cells÷number of cells) multiplied by the weight of the organ in milligrams. […] Effectiveness of compounds in the treatment of VL is expressed as LDU numbers and as percent increases or percent decrease in LDUs. Percent increase in LDU means that the number of parasites increased compared to the untreated controls and percent decrease means that the number of parasites decreased compared to the untreated controls.

[1] = system: NIH 3T3 BALB/c mouse fibroblast cell line; test: Cytotoxic assessment on NIH 3T3 BALB/c mouse fibroblasts (resazurin assay); conditions: for IC50: read-out: IC50 (μM) Fibroblasts, NIH 3T3 BALB/c mouse fibroblasts, 48 hrs, resazurin assay, means ± S.E.; for cytotoxicity compared with Amphotericin B: Balb/C 3T3 mouse fibroblast cell line, FIG. 2
Experimental: Fibroblasts cells (4×10^4 cells/nil and adding 100 μl per well) were incubated with different concentrations of the naphthoquinone compounds (FIGS. 1) (3, 7, 13, 29, 33, and 44 μM) for 48 hrs after which viability of live fibroblast cells was determined by the Resazurin Method using a microplate reader (Bio-Tek Instruments EL311).
NIH 3T3 mouse fibroblasts were maintained in Roswell Park Memorial Institute (RPMI) medium supplemented with 10% Fetal calf serum, 50 units/ml penicillin, 50 units/ml streptomycin B in a humidified incubator at 37° C. in the presence of 5% CO2 (Scala et al., 2010).
Assays were performed to assess the cytotoxicity of these compounds in 96-well microtiter plates, with each well containing 100 μl of RPMI medium supplemented with 10% bovine calf scrum with 50 U/ml Pen-Strep. The cells were plated at a concentration of 4×10^3 cells/well (4×10^4 cells/ml). Fibroblast cells were then incubated with compounds for 48 hrs and inspected under an inverted microscope to assure growth of the controls and sterile conditions. 10 μl of resazurin solution (12.5 mg resazurin dissolved in 100 nil distilled water) were added to each well and the plates were incubated for another 2 hrs. The plates were read with a microplate reader at 570 nm. Experiments were done at least 3 times in triplicates (Scala et al., 2010).
Cell viability was determined using Resazurin Assay. The IC50 values were calculated and expressed as means±S.E (standard error).

L. donovani amastigotes = test: Antileishmanial activity on L. donovani amastigotes (resazurin assay); assay type: cell-based, Leishmania donovani; conditions: for IC50: read-out: IC50 (μM) Amastigotes; for SI Values Amastigotes: SI = IC50 (mouse fibroblast) ÷ IC50 (amastigotes)
Experimental: Amastigotes were grown in MAA/20 medium (Amastigote medium consisted of: M199 medium supplemented with 0.5% Tryptone broth, 0.01 mM bathocuproinedisulfonic acid, 0.108 mM L-Cysteine, 15 mM D-glucose, 0.685 mM L-glutamine, and 0.025 mM Hemin and 20% fetal calf serum (FCS) at a pH of 5.5).
Amastigotes were plated at a concentration of 2×10^5 cells/[…] 24 hrs before treatment with various compounds. Amastigotes were treated with dilutions of compounds in 96-well microtitre plates. Dilutions of compounds ranging from 0.03 μM to 44 μM were prepared and added to amastigotes. Amastigotes were exposed to compounds for 48 hrs and were incubated at 37° C. […] After the incubation period, 20 μl Alamar Blue (12.5 mg resazurin dissolved in 100 ml distilled water) (Mikes and Steverding, 2000) were added to each well and plates were incubated for another 2 hrs. […] Decrease of fluorescence (inhibition) was expressed as percentage of the fluorescence of control cultures and was plotted against the concentrations of compounds. The IC50 values were calculated from the sigmoidal inhibition curves. Amphotericin B was used as a reference drug.

[2] = 20 mg/kg total dose, listed as Amphotericin B

## C[C@@H]1[C@H](O)[C@@H](C)/C=C/C=C/C=C/C=C/C=C/C=C/C=C/[C@H](O[C@@H]2O[C@H](C)[C@@H](O)[C@H](N)[C@@H]2O)C[C@@H]2O[C@](O)(C[C@@H](O)C[C@@H](O)[C@H](O)CC[C@@H](O)C[C@@H](O)CC(=O)O[C@H]1C)C[C@H](O)[C@H]2C(=O)O [Am. B., Amphotericin B, reference compound]
L. donovani; 20 mg/kg total dose
  LDUs (Liver): 5681.0 ± 1868 LDUs
  LDUs (Spleen): 402.3 ± 30 LDUs
L. donovani; [2]
  LDUs (Liver): 5823.8 LDUs
  LDUs (Spleen): 402.0±30 LDUs
L. donovani; 20 mg/kg
  Parasite Suppression (%)--Liver (reduction in parasite burden): 33.47%
  Parasite Suppression (%)--Spleen (reduction in parasite burden): 35.74%
L. donovani; 20 mg/kg, listed as Amphotericin B
  Parasite Suppression (%)--Spleen (reduction in parasite burden): 33.0%
[1]
  IC50: 1.18 µM
L. donovani amastigotes; L. donovani amastigotes, 48 hrs exposure, resazurin assay, means ± S.E.
  IC50: 22.3 µM

## NC1=C(Br)C(=O)c2ccccc2C1=O [IMD8, 2-Amino-3-bromo-1,4-naphthoquinone]
L. donovani; 5 mg/kg total dose
  LDUs (Liver): 4752.5±293 LDUs
  LDUs (Spleen): 585.3±222 LDUs
L. donovani; 5 mg/kg
  Parasite Suppression (%)--Liver (reduction in parasite burden): 56.66% and 55.66%
  Parasite Suppression (%)--Spleen (reduction in parasite burden): 6.51%
L. donovani; 20 mg/kg total dose
  LDUs (Liver): 3099.9±2197 LDUs
  LDUs (Spleen): 297.8±9.5 LDUs
L. donovani; 20 mg/kg
  Parasite Suppression (%)--Liver (reduction in parasite burden): 44.34%
  Parasite Suppression (%)--Spleen (reduction in parasite burden): 52.44%
L. donovani; 50 mg/kg total dose
  LDUs (Liver): 1869.0±420 LDUs
  LDUs (Spleen): 391.5±96 LDUs
L. donovani; 50 mg/kg
  Parasite Suppression (%)--Liver (reduction in parasite burden): 81.89%
[1]
  cytotoxicity compared with Amphotericin B: far less cytotoxic than Amphotericin B
L. donovani amastigotes; Leishmania donovani, 48 h
  IC50: 2.07 µM
L. donovani amastigotes
  SI Values Amastigotes: 6858.62±3975.5 and 6858.62

## O=C1C(Cl)=C(N(C(=O)c2cccc(Cl)c2)C(=O)c2cccc(Cl)c2)C(=O)c2ccccc21 [IMDNQ4, 3-Chloro-N-(3-chlorobenzoyl)-N-(3-chloro-1,4-dioxo-1,4-dihydronaphthalen-2-yl)-benzamide]
L. donovani; 5 mg/kg total dose
  LDUs (Liver): 5823.8±3378 LDUs
  LDUs (Spleen): 433.3±188 LDUs
L. donovani; 5 mg/kg
  Parasite Suppression (%)--Liver (reduction in parasite burden): 31.79%
  Parasite Suppression (%)--Spleen (reduction in parasite burden): 30.79%
L. donovani; 20 mg/kg total dose
  LDUs (Liver): 4266.0±6033 LDUs
  LDUs (Spleen): 770.0±608 LDUs
L. donovani; 20 mg/kg
  Parasite Suppression (%)--Liver (reduction in parasite burden): 50.04%
  Parasite Suppression (%)--Spleen (reduction in parasite burden): 0%
  increase in parasite burden (spleen): 18.7%
L. donovani; 50 mg/kg total dose
  LDUs (Liver): 1003.8±1420 LDUs
  LDUs (Spleen): 780.3±96 LDUs
L. donovani; 50 mg/kg
  Parasite Suppression (%)--Liver (reduction in parasite burden): 88.24%
  Parasite Suppression (%)--Spleen (reduction in parasite burden): 0%
  increase in parasite burden (spleen): 19.8%
[1]
  cytotoxicity compared with Amphotericin B: far less cytotoxic than Amphotericin B
  IC50: 168 µM
L. donovani amastigotes; Leishmania donovani, 48 h
  IC50: 1.19 µM
L. donovani amastigotes
  SI Values Amastigotes: 141.26±56.8 and 141.26

## CCCC(=O)N(C(=O)CCC)C1=C(Cl)C(=O)c2ccccc2C1=O [IMDNQ15]
L. donovani; 5 mg/kg total dose
  LDUs (Liver): 2267.5±191 LDUs
  LDUs (Spleen): 315.0±129 LDUs
L. donovani; 5 mg/kg
  Parasite Suppression (%)--Liver (reduction in parasite burden): 73.44%
  Parasite Suppression (%)--Spleen (reduction in parasite burden): 49.68%
L. donovani; 20 mg/kg total dose
  LDUs (Liver): 2598.5±89 LDUs and 2598.5 ± 889 LDUs
  LDUs (Spleen): 363.3±210 LDUs
L. donovani; 20 mg/kg
  Parasite Suppression (%)--Liver (reduction in parasite burden): 69.57%
  Parasite Suppression (%)--Spleen (reduction in parasite burden): 41.97%
L. donovani; 50 mg/kg total dose
  LDUs (Liver): 4618.0 ± 1785 LDUs
  LDUs (Spleen): 213.0±115 LDUs
L. donovani; 50 mg/kg
  Parasite Suppression (%)--Liver (reduction in parasite burden): 45.92%
  Parasite Suppression (%)--Spleen (reduction in parasite burden): 65.97%
[1]
  IC50: 2.94 µM
L. donovani amastigotes; Leishmania donovani, 48 h
  IC50: 18.9 µM
L. donovani amastigotes
  SI Values Amastigotes: 0.16±0.09 and 0.16
